Measured values reported in patent publication US8420052B2, “Imaging agents useful for identifying AD pathology” (Siemens Medical Solutions USA, Inc., priority 2008, dated 2013).

Tested on: amyloid plaques and fibrils in human brain slices
Experiment: Human brain slice competition assay using autoradiography
Format: binding
Conditions: radiolabeled tracer approx. 20 uCi, 90 min rt, lower = more displacement; for _max low dose (percent dose remaining relative to control with no blocker): blocker 0.25 uM; for _max high dose (percent dose remaining relative to control with no blocker): blocker 2.5 uM
Protocol: Human Brain Slice Competition Assay Using Autoradiography
Briefly, 5 micron thick human brain slices from regions of the brain bearing high amyloid plaque and fibril burden were incubated with approximately 20 uCi of a radiolabeled tracer in 2.5%:2.5%:95% DMSO:EtOH:PBS in the presence of blocker (2.5 and 0.25 uM total concentration) or absence of blocker (control). The slices were incubated at rt for 90 min. The slices were then quickly washed in PBS, followed by 70% EtOH:PBS for 2 min, then 30% EtOH:PBS for 2 min and then quickly washed with PBS. The slices were dried for 30 min and then exposed on autoradiographic film for 20 min. The brain slices were then removed from the slide and the radioactivity counted in a gamma counter. The percent dose remaining, relative to a control with no blocker, at 0.25 uM is represented in the “_max low dose” column. The percent dose remaining, relative to a control with no blocker, at 2.5 uM is represented in the “_max high dose” column.

Row | SMILES | _max low dose (percent dose remaining relative to control with no blocker) [%] | _max high dose (percent dose remaining relative to control with no blocker) [%]
1 | FCCOc1ccc2c(c1)[nH]c1ccccc12 [CB1] | 74.86 | 30.34
2 | FCCOCCOCCOc1ccc2c(c1)[nH]c1ccccc12 [CB3] | 69.78 | 29.53
3 | O=CNc1ccc2c(c1)[nH]c1cc(OCc3ccccc3)ccc12 [WZ01169] | 42.09 | 36.55
4 | CNc1ccc2c(c1)[nH]c1cc(O)ccc12 [GC3125] | 47.08 | 18.59
5 | FCCOCCOCCOc1ccc2c(c1)[nH]c1ncccc12 [DHK4-58] | 88.82 | 85.78
6 | CC(=O)Nc1ccc2sc3ccccc3c2c1 [Compound W34] | 84.84 | 73.74
7 | O=CNc1ccc2c(c1)[nH]c1cc(OCCF)ccc12 [CB12] | 59.97 | 12.29
8 | COc1ccc2[nH]c3ccc(NCCF)cc3c2c1 [CB13] | 108.14 | 110.57
9 | O=C(c1ccccc1)n1c2ccccc2c2ccc(OCCOCCOCCF)cc21 [CB21] | 104.81 | 94.00
10 | FCCCCOc1cccc(-c2cc3ccccn3c2)c1 [IN3] | 98.13 | 67.27
11 | Oc1cccc2[nH]c3ccccc3c12 [Compound W19] | 100.46 | 89.32
12 | FCCNc1nc(-c2ccc3ccccc3c2)cs1 [TZ001, N-(2-fluoroethyl)-4-(naphthalen-2-yl)thiazol-2-amine] | 98.06 | 52.00
13 | Nc1nc(-c2ccc3ccccc3c2)cs1 [w18] | 69.20 | 27.86
14 | COc1ccc2c(c1)[nH]c1c(C)nccc12 [Compound W65] | 105.49 | 94.16
15 | CNc1ccc2c(c1)[nH]c1cc(OCCF)ccc12 [Compound W106] | 46.04 | 21.03
16 | O=c1cc(-c2ccccc2)c2ccc(O)c(O)c2o1 [Compound 73] | 68.43 | 34.37
17 | NC(=O)c1ccc2cc(-c3cccc([N+](=O)[O-])c3)cn2c1 [Compound W100] | 97.53 | 75.02
18 | FCCOCCOCCOc1ccc2c(c1)[nH]c1c3ccccc3sc21 [DHK4-57] | 81.06 | 30.70
19 | O=CNc1ccc2c(c1)[nH]c1cc(OCCOCCOCCF)ccc12 [CB9] | 93.92 | 80.06
